Values joined by “and” are separate entries in the source; they are usually repeats but may differ in a detail not shown here. Equal values may be shown once. Read-outs that look alike come from different tables or passages of the source.
Experiments:
[1] = system: eIF4E phosphorylation at Serine 209 in HEK 293 cells; assay: eIF4E phosphorylation in HEK 293 cells (phospho-specific antibody, fluorescent plate reader); assay type: cell-based; details: Homo sapiens, HEK293; eIF4E phosphorylation at Serine 209, 2 hours exposure; read-out: HEK 293 cell;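 also: Well-level p-eIF4E immunofluorescence normalized to DAPI signal, expressed as percent eIF4E phosphorylation, with IC50 derived from concentration-response curves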
[2] = PK study in male Sprague-Dawley rats dosed once per day for five days, PO 25 mg/kg, 0.5% HPMC (Example 8); assay type: in vivo; details: 0.5% HPMC suspension
Method: Example 8. PK study of 4ET-03-053 in male Sprague-Dawley rats dosed once per day for five days (P0; 25 mg/kg; 0.5HPMC aqueous suspension)
Table 24 provides plasma and brain concentrations at 24 hr after the last dose of five daily PO doses of 4ET-03-053.

[3] = day five of daily PO 25 mg/kg, individual animals, 25 mg/kg
[4] = day five of daily PO 25 mg/kg, mean (n = 3)
[5] = male, Sprague-Dawley, rat, in vivo, po, 25 mg/kg, day five of daily PO 25 mg/kg, individual animals
[6] = male, Sprague-Dawley, rat, in vivo, po, 25 mg/kg, day five of daily PO 25 mg/kg, mean (n = 3)
[7] = male, Sprague-Dawley, rat, in vivo, po, 25 mg/kg, single PO 25 mg/kg dose, individual animals
[8] = male, Sprague-Dawley, rat, in vivo, po, 25 mg/kg, single PO 25 mg/kg dose, mean (n = 3)
[9] = single PO 25 mg/kg dose, individual animals, 25 mg/kg
[10] = single PO 25 mg/kg dose, mean (n = 3)

Which IC50 [1] does the source give for `Cc1cc(Nc2cc(N)ncn2)c(=O)n2c1C(=O)NC21CCC2(CC2)CC1` [4ET-03-053, 6″-((6-Aminopyrimidin-4-yl)amino)-8″-methyl-2″H-dispiro[cyclopropane-1,1′-cyclohexane-4′,3″-imidazo[1,5-a]pyridine]-1″,5″-dione] here?
Its IC50 is 10.1 nM.

And the “time to peak plasma concentration” value ([2]; after the last of five daily 25 mg/kg PO doses)?
The value was no more than 1 h.

And the AUCinf [2, 3]?
Its AUCinf is 489.224 µg·h/mL and 471.587 µg·h/mL.

What about the AUCinf/D [2, 3] of the same compound?
The AUCinf/D was 16316 kg·h/kL and 19569 kg·h/kL and 18863 kg·h/kL.

What about the AUClast [2, 3] of the same compound?
Its AUClast is 403.575 µg·h/mL and 371.995 µg·h/mL.

And the Clast [2, 3]?
The Clast was 5340 ng/mL and 6120 ng/mL.

And the Cmax [2, 3]?
Its Cmax is 26800 ng/mL and 29900 ng/mL.

And the Cmax/D [2, 3]?
The Cmax/D was 1184 kg/kL and 1072 kg/kL and 1196 kg/kL.

What about the F [2, 3] of the same compound?
The F was 31.7% and 38.0% and 36.6%.

What about the MRTinf [2, 3] of the same compound?
Its MRTinf is 13.2 h and 14.8 h.

What about the t1/2 [2, 3] of the same compound?
The t1/2 was 10.7 h and 9.67 h.

What about the AUCinf/D [2, 4] of the same compound?
Its AUCinf/D is 18250 kg·h/kL.

And the Cmax/D [2, 4]?
The Cmax/D was 1151 kg/kL.

And the F [2, 4]?
The F was 35.5%.

And the concentration at 24 h ([2]; male, Sprague-Dawley, rat, in vivo, po, 25 mg/kg, after the last of five daily 25 mg/kg PO doses, at 24 hr, read-out: last measurable concentration)?
The concentration at 24 h was 5890 ng/mL.

And the Cmax ([2]; male, Sprague-Dawley, rat, in vivo, po, 25 mg/kg, after the last of five daily 25 mg/kg PO doses, read-out: peak plasma concentration (Cmax))?
The Cmax was 28800 ng/mL.

What about the half-life ([2]; male, Sprague-Dawley, rat, in vivo, po, 25 mg/kg, after the last of five daily 25 mg/kg PO doses, read-out: terminal half-life (t1/2) (converted)) of the same compound?
Its half-life is 10.5 h.

And the AUC(0-inf) ([2]; male, Sprague-Dawley, rat, in vivo, po, 25 mg/kg, after the last of five daily 25 mg/kg PO doses, read-out: total systemic exposure (AUCinf))?
Its AUC(0-inf) is 456 µg·h/mL.

And the AUC(0-t) [2, 5]?
Its AUC(0-t) is 324 µg·h/mL.

What about the MRT inf [2, 5] of the same compound?
The MRT inf was 14.5 h.

And the Tmax [2, 5]?
Its Tmax is 1 h.

And the AUC(0-inf) ([2]; male, Sprague-Dawley, rat, in vivo, po, 25 mg/kg, day five of daily PO 25 mg/kg, individual animals, read-out: AUCinf)?
Its AUC(0-inf) is 408 µg·h/mL.

And the concentration at 24 h ([2]; male, Sprague-Dawley, rat, in vivo, po, 25 mg/kg, day five of daily PO 25 mg/kg, individual animals, read-out: Clast)?
The concentration at 24 h was 6220 ng/mL.

What about the Cmax ([2]; male, Sprague-Dawley, rat, in vivo, po, 25 mg/kg, day five of daily PO 25 mg/kg, individual animals, read-out: Cmax) of the same compound?
The Cmax was 29600 ng/mL.

What about the half-life ([2]; male, Sprague-Dawley, rat, in vivo, po, 25 mg/kg, day five of daily PO 25 mg/kg, individual animals, read-out: t1/2 (converted)) of the same compound?
The half-life was 11 h.

What about the AUC(0-t) [2, 6] of the same compound?
Its AUC(0-t) is 367 µg·h/mL.

And the MRT inf [2, 6]?
Its MRT inf is 14.1 h.

And the Tmax [2, 6]?
Its Tmax is 1 h.

What about the AUC(0-inf) ([2]; male, Sprague-Dawley, rat, in vivo, po, 25 mg/kg, day five of daily PO 25 mg/kg, mean (n = 3), read-out: AUCinf) of the same compound?
Its AUC(0-inf) is 456 µg·h/mL.

And the concentration at 24 h ([2]; male, Sprague-Dawley, rat, in vivo, po, 25 mg/kg, day five of daily PO 25 mg/kg, mean (n = 3), read-out: Clast)?
Its concentration at 24 h is 5890 ng/mL.

And the Cmax ([2]; male, Sprague-Dawley, rat, in vivo, po, 25 mg/kg, day five of daily PO 25 mg/kg, mean (n = 3), read-out: Cmax)?
The Cmax was 28800 ng/mL.

And the half-life ([2]; male, Sprague-Dawley, rat, in vivo, po, 25 mg/kg, day five of daily PO 25 mg/kg, mean (n = 3), read-out: t1/2 (converted))?
Its half-life is 10.5 h.

And the AUC(0-t) [2, 7]?
Its AUC(0-t) is 288 µg·h/mL.

What about the MRT inf [2, 7] of the same compound?
The MRT inf was 9.26 h.

And the Tmax [2, 7]?
The Tmax was 1 h.

What about the AUC(0-inf) ([2]; male, Sprague-Dawley, rat, in vivo, po, 25 mg/kg, single PO 25 mg/kg dose, individual animals, read-out: AUCinf) of the same compound?
The AUC(0-inf) was 315 µg·h/mL.

What about the concentration at 24 h ([2]; male, Sprague-Dawley, rat, in vivo, po, 25 mg/kg, single PO 25 mg/kg dose, individual animals, read-out: Clast) of the same compound?
Its concentration at 24 h is 3130 ng/mL.

What about the Cmax ([2]; male, Sprague-Dawley, rat, in vivo, po, 25 mg/kg, single PO 25 mg/kg dose, individual animals, read-out: Cmax) of the same compound?
The Cmax was 24400 ng/mL.

And the AUC(0-t) [2, 8]?
The AUC(0-t) was 312 µg·h/mL.

What about the MRT inf [2, 8] of the same compound?
Its MRT inf is 9.25 h.

And the Tmax [2, 8]?
The Tmax was 1.33 h.

What about the AUC(0-inf) ([2]; male, Sprague-Dawley, rat, in vivo, po, 25 mg/kg, single PO 25 mg/kg dose, mean (n = 3), read-out: AUCinf) of the same compound?
Its AUC(0-inf) is 341 µg·h/mL.

And the Cmax ([2]; male, Sprague-Dawley, rat, in vivo, po, 25 mg/kg, single PO 25 mg/kg dose, mean (n = 3), read-out: Cmax)?
The Cmax was 25900 ng/mL.

What about the half-life ([2]; male, Sprague-Dawley, rat, in vivo, po, 25 mg/kg, single PO 25 mg/kg dose, mean (n = 3), read-out: t1/2 (converted)) of the same compound?
The half-life was 6.82 h.

What about the Cmax ([2]; male, Sprague-Dawley, rat, in vivo, po, 25 mg/kg, single PO 25 mg/kg, read-out: peak plasma concentration (Cmax)) of the same compound?
Its Cmax is 25900 ng/mL.

What about the half-life ([2]; male, Sprague-Dawley, rat, in vivo, po, 25 mg/kg, single PO 25 mg/kg, read-out: terminal half-life (t1/2) (converted)) of the same compound?
The half-life was 6.82 h.

What about the AUC(0-inf) ([2]; male, Sprague-Dawley, rat, in vivo, po, 25 mg/kg, single PO 25 mg/kg, read-out: total systemic exposure (AUCinf)) of the same compound?
The AUC(0-inf) was 341 µg·h/mL.

What about the bioavailability ([2]; male, rat, in vivo, after the last of five daily 25 mg/kg PO doses) of the same compound?
Its bioavailability is 35.5%.

What about the AUCinf [2, 9] of the same compound?
Its AUCinf is 363.793 µg·h/mL and 345.084 µg·h/mL.

What about the AUCinf/D [2, 9] of the same compound?
The AUCinf/D was 12599 kg·h/kL and 14552 kg·h/kL and 13803 kg·h/kL.

And the AUClast [2, 9]?
Its AUClast is 336.46 µg·h/mL and 313.078 µg·h/mL.

And the Clast [2, 9]?
Its Clast is 2660 ng/mL and 2870 ng/mL.

What about the Cmax/D [2, 9] of the same compound?
Its Cmax/D is 976 kg/kL and 984 kg/kL and 1152 kg/kL.

And the F [2, 9]?
Its F is 24.5% and 28.3% and 26.8%.

And the MRTinf [2, 9]?
The MRTinf was 8.89 h and 9.60 h.

What about the t1/2 [2, 9] of the same compound?
The t1/2 was 6.94 h and 6.50 h.

And the AUCinf/D [2, 10]?
Its AUCinf/D is 13651 kg·h/kL.

And the Cmax/D [2, 10]?
The Cmax/D was 1037 kg/kL.
